Measured values taken from publication PMC12128024, “Copper(II) Cyclopeptides with High ROS-Mediated Cytotoxicity” (Bioconjugate Chemistry, 2025).
Like-named read-outs stand apart in the source and are kept apart here. *1 amine or outer side, *2 acyl side, *3 side chain or, on linkers, in order; H or OH if unused. Where a SMILES comes first, the peptide text is derived from it. [ ]: non-standard residue; d: D form. X1 = O=C(c1ccc(-c2ccc(N[*:1])cn2)nc1)[*:2]; βAla = NCCC(=O)O

Tests used:
[1] = tested on: NCI/ADR-RES (doxorubicin resistant ovarian carcinoma); settings: 48 h
Text: (§1) IC50 is the concentration at which 50% growth inhibition is obtained and E max represents the efficacy of the compound at its maximum concentration, expressed as the maximum % cell inhibition achieved by the compound (see Section S6 and Figure S8 of the Supporting Information).
(§2) General method: cell lines and grown conditions
(§3) Non-small lung carcinoma NCI-H460, human colon carcinoma HCT-116, human glioma SF-268
(§4) and doxorubicin-resistance human mamma carcinoma NCI/ADR-RES cell lines, as well as
(§5) Eagle’s Minimal Essential Medium (EMEM) and RPMI1640 were purchased from the American Tissue Culture Collection (ATCC). Frozen cells were thawed in a 75 cm2 cell culture flask in RPMI
(§6) supplemented with 2 mM L-glutamine and 10% FBS and maintained at 37 °C in a 5% CO2
(§7) The inhibition of cell proliferation induced by the samples [1/Cu(II), 1 eq. cyclopeptide 1/3 eq. of
(§8) Cu(II); 2/Cu(II), 1 eq. cyclopeptide 2/5 eq. of Cu(II)]‚ was carried out by using MTT method for
(§9) HCT-116, NCI/ADR-RES and NCI-H460 cell lines. SF-268 cell growth inhibition induced by the
(§10) samples was assessed using a system based on crystal violet cell staining and subsequent
(§11) acetylation. Cells were seeded in a 96-well microplate (5000 cells/well for HCT-116, 10000
(§12) cells/well for SF-268 and 15000 cells/well for NCI/ADR-RES and NCI-H460 cell lines) in 100 μl
(§13) of growth medium and maintained at 37 °C for 24 h.
(§14) Then growth medium was replaced by fresh medium containing different concentrations of the
(§15) samples to be assayed and maintained at 37 °C in a 5% CO2 atmosphere for 48 h. After this
(§16) time, 10 μL MTT (5 mg/ml in PBS) were added to each well and maintained for 4 h at 37 °C in a
(§17) 5% CO2 atmosphere. Then 100 μL of 10% SDS in 0.01 M HCl were added to each well an
(§18) incubated for 12-14 h under the same experimental conditions. Absorbance due to formation
(§19) was detected in a Tecan infinity M1000 Pro reader using a wavelength of 595 nm. All assays
were performed with triplicate points.
b) Crystal violet cell staining
(§20) The samples dissolved in water were added, maintaining the same proportion of water in each
(§21) well (10%). After 72 h (at 37°C and in an atmosphere of 5% CO 2/95% air), the cells were fixed to
(§22) the plate with 10 μL of 11% glutaraldehyde solution, kept under agitation at room temperature,
(§23) for 15 minutes. Once fixed, the medium was removed and the cells were washed 3-4 times with
(§24) distilled water, followed by staining of the cells with 100 μL of a 0.1% crystal violet solution. This
(§25) solution was prepared by diluting 0.1g of crystal violet in 100 mL of buffer composed of 200 mM
(§26) phosphoric acid, 200 mM formic acid and 200 mM 2-(N-morpholino)-ethane sulphonic acid
(§27) (MES) at pH 6. The plate was kept shaking at room temperature for 15 minutes. The dye was
(§28) removed, washed 3-4 times with distilled water and dried. 100 μL of 10% acetic acid was then
(§29) added and kept under agitation for 15 minutes, at room temperature, so that the staining was
(§30) homogeneous in all wells. Finally, an absorbance reading of the plates was performed at a
(§31) wavelength of 595 nm (Tecan M1000 Infinite Pro). The assay was performed with triplicate points.
(§32) Data were expressed as the growth inhibition percentage calculated in basis on the equation: %
(§33) inhibition= 100 – [(AO × 100) / AT]. Where AT is the measured absorbance in wells containing
(§34) compounds and AO is the absorbance measured in blank wells (cells with medium and vehicle).
(§35) The inhibitory potency of compounds was calculated by constructing concentration-% growth
(§36) inhibition curves, and extrapolating IC50 values (concentration of compound that inhibits cells

[2] = tested on: HCT-116 (colon carcinoma); settings: 48 h
Text: as §1, §2, §3, §4, §5, §6, §7, §8, §9, §10, §11, §12, §13, §14, §15, §16, §17, §18, §19
were performed with triplicate points.
b) Crystal violet cell staining
as §20, §21, §22, §23, §24, §25, §26, §27, §28, §29, §30, §31, §32, §33, §34, §35, §36

[3] = Fluorescence titration of cyclopeptides with Cu(II) ions (DynaFit fit); assay type: binding; settings: 2 μM cyclopeptide, 1 mM phosphate buffer, 10 mM NaCl, pH 6.5; 1: 1:2 model (cyclopeptide:metal); 2: simplified model with 1:1 and 2:1 species; read-out: global dissociation constant K D
Text: While the 2,2′-bipyridine ligand is known to be weakly emissive and for all practical purposes considered nonfluorescent, , the 5′-amido-[2,2′-bipyridine]-5-carboxamide unit in the βAlaBpy building block is highly emissive, displaying an intense emission band at c.a. 410 nm with a quantum yield of 0.37. Furthermore, the fluorescence of the βAlaBpy units is quenched upon coordination to a wide range of divalent transition metal ions. We exploited this property to monitor the coordinative properties of cyclopeptides 1 and 2 in the presence of labile Cu(II) ions in aqueous media. Thus, we measured the emission spectra of 2 μM solutions of the cyclopeptides 1 and 2 in 1 mM phosphate buffer and 10 mM NaCl, pH 6.5, upon excitation at 308 nm in the presence of increasing concentrations of Cu(II) ions. […] Therefore, the affinity of the first part of the titrations cannot be determined with this experiment as it is too strong. […]
5.2. Fluorescence titration experiments
Luminescence experiments were made with a Varian Cary Eclipse Fluorescence spectrophotometer coupled to a Cary Single Cell Peltier accessory (Agilent Technologies) temperature controller. […]
emission spectrum was recorded (λex= 308 nm; λem= 410 nm) after each addition. […]

SF-268 (human glioma) = settings: 72 h
Text: as §1, §2, §3, §4, §5, §6, §7, §8, §9, §10, §11, §12, §13, §14, §15, §16, §17, §18, §19
were performed with triplicate points.
b) Crystal violet cell staining
as §20, §21, §22, §23, §24, §25, §26, §27, §28, §29, §30, §31, §32, §33, §34, §35, §36

[4] = tested on: nontransformed lung fibroblast (MRC-5)
Text: as §1, §2, §3, §4, §5, §6, §7, §8, §9, §10, §11, §12, §13, §14, §15, §16, §17, §18, §19
were performed with triplicate points.
b) Crystal violet cell staining
as §20, §21, §22, §23, §24, §25, §26, §27, §28, §29, §30, §31, §32, §33, §34, §35, §36

NCI/ADR-RES cells [5] = test: ICP-MS internalization study (intracellular Cu accumulation); assay type: cell-based; settings: 1 µM compound, 48 h, metallopeptides 1 eq. cyclopeptide + 1 eq. Cu(II)
Protocol: To evaluate the ability of the Cu(II) metallopeptide systems to internalize in cancer cells, ICP-MS studies were performed in NCI/ADR-RES cells after 48 h of incubation with cyclopeptides 1 and 2, as well as their corresponding 1/Cu(II) and 2/Cu(II) metallopeptide derivatives formed by mixing each cyclopeptide with 1 equiv Cu(II), and using CuCl2·2H2O both as a Cu(II) source and a control.
7.1. General methods and materials
ICP Measurements were conducted employing an Agilent 7900 ICP-MS system (Agilent Technologies, Tokyo, Japan). The sample introduction system was comprised of an autosampler, a double-pass spray chamber with Peltier system, a glass concentric nebulizer (MicroMist low-flow nebulizer, Glass Expansion, West Melbourne, Australia), and a quartz torch.
Quantification of copper concentrations was achieved using Agilent ICP-MS MassHunter 5.1, (Version D.01.01 Agilent Technologies, Tokyo, Japan). The parameters for the ICP-MS device were as follows: RF Power, 1550 W; Sample Depth, 8; Carrier Gas, 1.1 L/min; Nebulizer Pump […]
Roswell Park Memorial Institute 1640 medium (RPMI), fetal bovine serum (FBS), penicillin, and streptomycin were purchased from Invitrogen Thermo Fisher.
Ovarian tumour NCI/ADR-RES cells, obtained from the European Collection of Authenticated Cell Cultures (ECACC), were cultured at 37 °C in a 5% CO2 atmosphere in RPMI medium containing 10% FBS and supplemented with 50 U/mL penicillin and 50 U/mL streptomycin, in 75 cm2 cell culture flasks. All cell experiments were performed at 37 °C in a 5% CO 2 atmosphere with this modified RPMI, referred as “medium” or “culture medium”.
7.3. […]
The culture medium was then replaced with 3 mL of fresh medium containing 1 µM of the compound [Cu(II) (CuCl₂·2H₂O), cyclopeptide ( 1 or 2), or metallopeptide system [1/Cu(II) or 2/Cu(II); 1 eq. cyclopeptide + 1 eq. […] Lysates were digested at 95 °C overnight, diluted with 1% HNO₃ to a final volume of 5 mL, and analyzed by ICP-MS. The Cu(II) content in the culture medium (3 mL) was also measured using the same technique, yielding a value of 41.46 ng. […]

[6] = tested on: NCI-H460 (lung carcinoma); settings: 48 h
Text: as §1, §2, §3, §4, §5, §6, §7, §8, §9, §10, §11, §12, §13, §14, §15, §16, §17, §18, §19
were performed with triplicate points.
b) Crystal violet cell staining
as §20, §21, §22, §23, §24, §25, §26, §27, §28, §29, §30, §31, §32, §33, §34, §35, §36

NCI/ADR-RES cells [7] = test: Intracellular ROS generation (ROS Assay Stain 1X); assay type: cell-based; settings: 100 μM compound with 125 μM H2O2, 1-5 h and 24 h, 1/Cu(II) equimolar
Protocol: Measurement of intracellular ROS levels in NCI/ADR-RES cells treated with Cu(II) ions, cyclopeptide 1, or the 1/Cu(II) metallopeptide system confirmed a time-dependent increase in the level of ROS generation. In short, after 24 h of incubation, cells were stained with ROS Assay Stain 1× and treated with 100 μM Cu(II) (CuCl2·2H2O), cyclopeptide 1, or 1/Cu(II), along with 125 μM H2O2, and fluorescence was recorded (λex = 495/λem = 520 nm) every hour for the first 5 h and again at 24 h. The experiment with the metallopeptide system was conducted by using equimolar amounts of cyclopeptide 1 and Cu(II) to prevent an excess of free copper in the medium. […] The cytotoxicity of the metallopeptide systems appears to be closely linked to their ability to enhance intracellular oxidative stress via increased ROS production, likely driven by Cu(II) accumulation within the cells.
9.2. […]
NCI/ADR-RES cells were seeded in a 96 well plate (Thermo Scientific 165305) at a density of 2,5 x 10^5 cells/ml. […] The fluorescence was measured in a microplate reader every hour for the first 5 hours, and again at 24 hours after the addition of the compounds (λex= 495 nm / λem= 520 nm). […]
Figure S15. […] Fluorescence (λex= 495 nm / λem= 520 nm) was recorded every hour for the first 5 hours, and again at 24 hours after the addition of the compounds to assess intracellular ROS generation. […]

[8] = NCI/ADR-RES, MTT, 1/Cu(II) 3 equiv Cu(II), 2/Cu(II) 5 equiv Cu(II)
[9] = NCI/ADR-RES, MTT, at maximum concentration
[10] = HCT-116, MTT, 1/Cu(II) 3 equiv Cu(II), 2/Cu(II) 5 equiv Cu(II)
[11] = HCT-116, MTT, at maximum concentration
[12] = SF-268, crystal violet, 1/Cu(II) 3 equiv Cu(II), 2/Cu(II) 5 equiv Cu(II)
[13] = SF-268, crystal violet, at maximum concentration
[14] = MRC-5, 48 h, 1/Cu(II) 3 equiv Cu(II), 2/Cu(II) 5 equiv Cu(II)
[15] = MRC-5, 48 h, at maximum concentration
[16] = NCI-H460, MTT, 1/Cu(II) 3 equiv Cu(II), 2/Cu(II) 5 equiv Cu(II)
[17] = NCI-H460, MTT, at maximum concentration

N=C(N)NCCC[C@@H]1NC(=O)c2ccc(nc2)-c2ccc(cn2)NC(=O)CCNC(=O)[C@H](CCCNC(=N)N)NC(=O)[C@H](CCCNC(=N)N)NC(=O)[C@H](CCCNC(=N)N)NC(=O)c2ccc(nc2)-c2ccc(cn2)NC(=O)CCNC(=O)[C@H](CCCNC(=N)N)NC(=O)[C@H](CCCNC(=N)N)NC(=O)[C@H](CCCNC(=N)N)NC(=O)c2ccc(nc2)-c2ccc(cn2)NC(=O)CCNC(=O)[C@H](CCCNC(=N)N)NC(=O)[C@H](CCCNC(=N)N)NC1=O [compound 2, cyclo-(βAlaBpy-Arg3)3] (cyclo(RRR[βAla][X1]RRR[βAla][X1]RRR[βAla][X1]))
E max (maximum % cell inhibition) [1]: 86 ± 1%
IC50 [1]: 28 ± 1 µM
E max (maximum % cell inhibition) [2]: 80 ± 1%
IC50 [2]: > 100 µM
Kd [3]: 0.24 ± 0.1 µM
E max (maximum % cell inhibition) (SF-268 (human glioma)): 92 ± 1%
IC50 (SF-268 (human glioma)): 16 ± 1 µM
E max (maximum % cell inhibition) ([4]; 48 h): 92 ± 1%
IC50 ([4]; 48 h): 18 ± 1 µM
intracellular Cu(II) accumulation (ICP-MS) (NCI/ADR-RES cells [5]): notably lower than that of the metallopeptide systems
E max (maximum % cell inhibition) [6]: 92 ± 1%
IC50 [6]: 21 ± 1 µM

N.N.[Cl][Pt][Cl] [cisplatin, reference compound]
IC50 [1, 8]: 13 ± 1 µM
E max (maximum % cell inhibition) [1, 9]: 86 ± 1%
IC50 [2, 10]: 13 ± 1 µM
E max (maximum % cell inhibition) [2, 11]: 94 ± 1%
IC50 (SF-268 (human glioma); [12]): 3.89 ± 0.08 µM
E max (maximum % cell inhibition) (SF-268 (human glioma); [13]): 92 ± 1%
IC50 [4, 14]: 5.7 ± 0.22 µM
E max (maximum % cell inhibition) [4, 15]: 92 ± 1%
IC50 [6, 16]: 5.29 ± 0.46 µM
E max (maximum % cell inhibition) [6, 17]: 62 ± 4%

O.O.[Cl][Cu][Cl] [CuCl2·2H2O, reference compound]
IC50 [1, 8]: 99 ± 1 µM
E max (maximum % cell inhibition) [1, 9]: 91 ± 1%
IC50 [2, 10]: > 100 µM
E max (maximum % cell inhibition) [2, 11]: 94 ± 1%
IC50 (SF-268 (human glioma); [12]): > 100 µM
E max (maximum % cell inhibition) (SF-268 (human glioma); [13]): 87 ± 1%
IC50 [4, 14]: 79 ± 3 µM
E max (maximum % cell inhibition) [4, 15]: 91 ± 1%
intracellular Cu(II) accumulation (ICP-MS) (NCI/ADR-RES cells [5]): modest increase in intracellular copper
IC50 [6, 16]: > 100 µM
E max (maximum % cell inhibition) [6, 17]: 97 ± 1%
intracellular ROS levels (fluorescence) (NCI/ADR-RES cells [7]): moderate effect
